These results are taken from patent US20220106304A1, “Transcription Factor BRN2 Inhibitory Compounds as Therapeutics and Methods for Their Use” (The University of British Columbia, priority 2018, published 2022).

Data set [1] relates to 42D^ENZR cells vs 16D^CRPC cells. Put plainly: Cell proliferation specificity, 42D^ENZR cells vs 16D^CRPC cells. Type of data set: cell-based. The note with it: 42D cells express BRN2, 16D cells do not; some also LNCaP; result in words. As for the experimental part: (§1) Plate 42DENZR (˜7000 cells per well) and 16D^CRPC (˜5000 cells per well) cells in 96 well plate with a volume of 100 μL per well. • 2. Next day 1 mL aliquots of media are combined with 3× the desired concentration of compounds. The aliquots are vortexed and 50 μL of each 3× concentration is added to the 100 μL of media in each well to give the ix desired concentration.
(§2) The following are the desired concentrations:
(§3) 0, 10 nM, 100 nM, 500 nM, 1 μM, 2.5 μM, 5 μM, 10 μM, 15 μM, […], 30 μM. • 3. Approximately 72 hours later, 17 μL of 10% Glutaraldehyde is added to each well and plates are placed on a shaker for 20-30 minutes. • 4. Media is washed off the fixed cells by slow submersion in a container of water. Then the water is removed by tapping the plate upside down. • 5. 75 μL of Crystal Violet™ solution is added into the 96 well plates and placed on a shaker for ˜30 minutes. • 6. Media is washed off the fixed cells by repeated slow submersion in a container of water and the plates are allowed to dry over-night. • 7. Next day, 75 μL of Sorensen Solution is accurately pipetted into each well. The plates placed on a shaker for ˜30 minutes. • 8. Absorbance is measured in the plate at 590 nm.
Compounds that Show Specificity Towards 42D^ENZR Cells Vs 16D^CRPC Cells Progress to Step 4.
(§4) Where data is not available “na” is inserted.

A short description of data set [2]: Liver microsome metabolic stability, HLM. Type of data set: in vitro ADME. The note with it: HLM (first of two values), 1 μM compound, 0.25 mg/mL protein. The method, then:
Potassium phosphate buffer (Kphos) was prepared by adding 0.647 g potassium phosphate monobasic (KH2PO4) and 3.527 g potassium phosphate dibasic ([…]) to 400 mL of Milli-Q water. pH of the buffer was adjusted to 7.4 and volume was made up to 500 mL.
Microsomes (20 mg/mL) were diluted in KH2PO4 buffer to prepare a concentration of 0.357 mg/mL.
Stock solutions of BRN2 inhibitors were prepared in DMSO at a concentration of 1 mM
A stock solution of 3.33 mM NADPH (3.33×) was prepared by dissolving appropriate amount of NADPH in KH2PO4 buffer.
Total Incubation volume: 100 μL
Compound concentration: 1 μM
Protein Concentration: 0.25 mg/mL
An 1120 μL aliquot of Kphos buffer (50 mM, pH 7.4) containing liver microsomes (0.357 mg/mL) were added to individual 2 mL tubes (final concentration 0.25 mg/mL). Test compounds (1 mM) and positive controls were directly spiked into respective tubes to prepare a concentration of 1.428 μM (final concentration 1 μM). From the above mix, 70 μL was added to individual wells of 96 well reaction plates and pre-incubated in a 37° C. water bath for 5 min. All the reactions were initiated by adding 30 μL of 3.33 mM NADPH (final concentration 1 mM). Reactions without NADPH and buffer controls (minus NADPH) at 0 min and 60 min were also incubated to rule out non-NADPH metabolism or chemical instability in the incubation buffer. All reactions were terminated using 100 μL of ice-cold acetonitrile containing internal standard at 0, 5, 15, 30 and 60 min. The plates were centrifuged at 4000 RPM for 15 min and 100 μL aliquots were submitted for analysis by LC-MS/MS.
Samples were monitored for parent compounds disappearance in MRM mode using LC-MS/MS.
The percent remaining of test compounds and positive control in each sample was determined by considering peak area ratio in the 0 minute sample as 100%. The Half-life of compounds in microsomes is calculated by formula:
Half-life (t½) (min)=0.693/k, where k is gradient of line determined from plot of peak area ratio (compound peak area/internal standard peak area) against time.
In vitro intrinsic clearance (CL'int) (units in mL/min/kg) was calculated using the formula.
[formula] • For liver microsomes, scaling factor used was 45 mg microsomal protein per gm liver. • Indicates liver weight (gm) which varies species wise. For mice the liver weights are 90 gm.
as §4
(In general: Liver microsomes are a subcellular fraction often used to study metabolism.)

Data set [3] concerns the target T1, BRN2 (Homo sapiens, UniProt P20265).
T1 sequence (P20265 1-443): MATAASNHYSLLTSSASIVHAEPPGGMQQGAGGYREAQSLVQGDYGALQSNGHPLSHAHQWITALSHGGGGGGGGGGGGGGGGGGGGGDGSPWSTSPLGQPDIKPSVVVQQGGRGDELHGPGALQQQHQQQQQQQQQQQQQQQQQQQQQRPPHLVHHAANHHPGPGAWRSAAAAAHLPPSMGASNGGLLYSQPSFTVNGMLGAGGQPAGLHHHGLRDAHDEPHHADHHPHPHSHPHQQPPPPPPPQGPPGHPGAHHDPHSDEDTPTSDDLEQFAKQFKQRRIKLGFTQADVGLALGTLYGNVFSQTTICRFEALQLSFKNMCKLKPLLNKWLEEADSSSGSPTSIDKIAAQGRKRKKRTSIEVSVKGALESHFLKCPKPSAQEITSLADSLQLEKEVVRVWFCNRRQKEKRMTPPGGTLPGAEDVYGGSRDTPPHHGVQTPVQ
Put plainly: cell-based. The note with it: negative = activation; for inhibition at 10 µM: read-out: % BRN2 Inhibition (10 μM), 10 μM compound, 24 hours, 42D^ENZR cells stably expressing BRN2-luciferase reporter; for inhibition at 30 µM: read-out: % BRN2 Inhibition (30 μM), 30 μM compound, 24 hours, 42D^ENZR cells stably expressing BRN2-luciferase reporter. (In a reporter assay the amount or activity of a reporter protein is the signal.)

A short description of data set [4]: Liver microsome metabolic stability, MLM. To be noted: MLM (single value or second of two), 1 μM compound, 0.25 mg/mL protein; for Met Stab % (60 mins HLM/MLM): percent remaining at 60 min, 1 mM NADPH; for half-life at 1 µM: mouse, liver microsomes, pH 7.4, read-out: T1/2 in (mins HLM/MLM). Type of data set: in vitro ADME. The essentials:
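Compound (1 μM) incubated at 37 °C with mouse or human liver microsomes (0.25 mg/mL) in 50 mM phosphate pH 7.4 with 1 mM NADPH; samples quenched at 0–60 min. Parent loss by LC-MS/MS gives t½ (0.693/k) and CL'int scaled by 45 mg protein/g liver.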

Data set [5] deals with T1, BRN2. Put plainly: BLI binding. For orientation: In BLI a coated tip is dipped into the sample, and binding shifts an interference pattern.
The test system of data set [6] is 42D^ENZR cells. Nature of the data set: Cell proliferation (crystal violet), BRN2 expressing 42D^ENZR cells. The format is cell-based. The note with it: 42D cells, approximately 72 hours. As for the experimental part:
as §1, §2, §3

By inhibition is commonly meant the change of the read-out against control, counted positive when it falls. As for `FC(F)(F)c1ccc2cc(-c3csc(-c4ccco4)n3)oc2c1` [VPC-18-51, 2-(Furan-2-yl)-4-(6-(trifluoromethyl)benzofuran-2-yl)thiazole], the specificity entry in data set [1] is listed as “specific 42D not 16D”. For the same compound, the “Met Stab % (60 mins HLM/MLM)” value in data set [2] (percent remaining at 60 min, 1 mM NADPH) came to 42%. Further, the half-life at 1 µM in data set [2] (human, liver microsomes, pH 7.4, read-out: T1/2 in (mins HLM/MLM)) was 45 min. Further, in data set [3], the inhibition at 10 µM was determined as 62.5% and the inhibition at 30 µM came out at 71.4%. Also, in data set [4], the “Met Stab % (60 mins HLM/MLM)” value was 7% and the half-life at 1 µM amounted to 16 min. For the same compound, the BLI binding result in data set [5] is recorded as “binding”.

As usually defined, the IC50 is the concentration needed to halve the response being measured. Read a low IC50 as greater potency. Turning to `Clc1cc2cc(-c3csc(-c4ccc[nH]4)n3)oc2cc1Cl` [VPC-18-142], the specificity entry in data set [1] was “not 16D”. In data set [3], the inhibition at 10 µM was determined as 29.1% and the inhibition at 30 µM amounted to 53.6%. Also, in data set [6], inhibition was half-maximal at 2500 nM (IC50). Moreover, in data set [4], the “Met Stab % (60 mins HLM/MLM)” value is reported as 17% and the half-life at 1 µM stood at 26 min. The BLI binding result in data set [5] was “binding”.
